Structure (SMILES)	melting point
CCCOc1cc(CCCOc2c(CC(=O)O)cccc2OC)n(Cc2ccc(C(F)(F)F)cc2)n1	122 to 123 °C
O=C(NCCCCCCCCCCCCOC(=O)Oc1ccc([N+](=O)[O-])cc1)OC1CCN(C(=O)Oc2ccc(Oc3ccccc3)cc2)CC1	96 to 98 °C
O=C1NCCN1CCNc1cc(-c2ccncc2)c(-c2ccccc2)nn1	206 to 207 °C
COC(=O)c1ccc2c(CCCNc3ccccn3)nn(C)c2c1	101 to 104 °C
COC(=O)c1ccc(-c2ccncc2)cc1	99 to 101 °C
Oc1ccc2c(c1)CCCC(c1ccccc1)=C2c1ccc(OCCCCCCSCc2ccccn2)cc1	127 °C
CN1CCN(CCCN(C)C(=O)Cn2c(-c3cccc(Cl)c3)nc3cccnc32)CC1	114 to 117 °C
CC(C)=C1C(=O)N(c2ccc(O)cc2)C(=O)/C1=C(/c1cc(C)sc1C)C(C)C	136 to 138 °C
CC(C)(C)OC(=O)N1CCN(C(=O)OC(C)(C)C)C(C(O)(Cc2ccccc2)Cc2ccccc2)C1 (stereo not given)	150 °C
CC(C)n1nc(-c2cnc(N3CCOCC3)nc2-c2ccccc2)ccc1=O	200 to 202 °C
O=S(=O)(c1cccc(F)c1)c1ccc2[nH]c3c(c2c1)CCNCC3	153 to 156 °C
CO[C@]12C[C@@H](CCN3CCC(O)(c4ccc(Cl)cc4)CC3)CN(C)[C@@H]1Cc1c[nH]c3cccc2c13	133 to 139 °C
Cc1cc(C#N)cc(C(=O)NC(C)C2CC2)c1NC(=O)c1cc(Br)nn1-c1ncccc1Cl (stereo not given)	244 to 245 °C
O=C(CNc1ccccc1)Nc1ccc(Cl)c(Cl)c1	110 to 112 °C
ClCc1cccc2c1CCCC2	51 to 52 °C
CN(C)c1nnc(SCC(=O)C23CC4CC(CC(C4)C2)C3)s1	150 to 151 °C
CCSCC(=O)N1CCSC1COc1ccc(OC)cc1 (stereo not given)	98 to 110 °C
CN(C)C(=C[N+](=O)[O-])NCc1cnc(Cl)s1	101 to 102 °C
CCCc1c(C(=O)C(C)C)c2ccc(CC(N)=O)cc2n1Cc1ccccc1Cl	146 to 148 °C
CCOC(=O)N1C(=O)[C@H](O)[C@@H]1c1ccccc1	112 to 113 °C

Structure (SMILES)	melting point
CCN(CC)CCOC(=O)c1ccc(NC(=O)c2ccc(-c3ccccc3)cc2)cc1	146 to 149 °C
CN=C1SC(=NOC(=O)NC)C(C)(C)S1	68 to 70 °C
CCOC(=O)c1ccccc1SC1C(=O)N(c2c(Cl)cc(Cl)cc2Cl)N=C1OC (stereo not given)	185 to 187 °C
CCCc1c(OCC#CCCCC(=O)NCCCCc2cccnc2)ccc(C(C)=O)c1O	77 to 80 °C
O=C(CC1CCCCC1)NC1CCCCC1	164 to 165 °C
Nc1cccc(S(F)(F)(F)(F)F)c1	32 to 35 °C
CC(C)(C)OC(=O)N1CCn2c(Cl)c(-c3cccc(C#N)c3)c(C(=O)O)c2C1	208 to 210 °C
FC(F)(F)c1cc(CO[C@@H]2CCCN(Cc3ccco3)[C@@H]2c2ccccc2)cc(C(F)(F)F)c1 (relative stereo)	103 to 104 °C
NC(=O)c1cnc2ccsc2c1Cl	180 to 182 °C
COC(=O)c1ccc(-c2cc(CCNC(C)=O)c3cc(OC)ccc3c2)cc1	147 to 149 °C
O=C(CCCCCn1ccnn1)NC[C@@H]1CN2C(=O)C[C@H]2O1 (racemic)	108 to 109 °C
C=Cc1ccc(O)c(-n2nc3ccccc3n2)c1	98 to 99 °C
CCCCCCCCCCCCCCCCCC(=O)Oc1ccc2c(c1)C(=O)c1ccc(OC(=O)CCCCCCCCCCCCCCCCC)cc1C2=O	129 to 132 °C
CCCCCC(NC(C)C)=C1C(=O)ON=C1C	99 to 101 °C
CC(C)Oc1cc(NC(=O)C2CCCCN2)c(F)cc1Cl (stereo not given)	96 to 98 °C
O=C1c2cccnc2N(N2CCCCC2)C2=NCCN12	206 to 207 °C
CCc1ccc(S(N)(=O)=O)cc1	104 to 108 °C
COc1cc(C=O)cc(I)c1OCc1ccccc1	53 to 54 °C
CN1CCN(C2=Nc3ccccc3N(C)c3cscc32)CC1	83 to 85 °C
IC12C3C4C5C3C1C5C42 (stereo not given)	32 to 33 °C

Structure (SMILES)	melting point
COc1ccc(C(=S)Nc2ccccc2)cc1NS(=O)(=O)c1cc(Cl)cc(Cl)c1	206 to 208 °C
Cc1cccc2c(=O)[nH]cc(Br)c12	201 to 210 °C
CSc1c(OCC(=O)O)ccc2c1[nH]c1ccccc12	179 to 180 °C
O=C(CCCCCl)NC1CCCCC1	70 to 71 °C
O=C1C(=O)c2ccccc2C2=C1SCC1(CCN(C(=O)C(Cl)c3ccccc3)CC1)O2 (stereo not given)	125 to 126 °C
CC(C)(C)OC(=O)COC1CCN(C(=O)[C@H](Cc2ccc(OC(C)(C)C)cc2)NC(=O)c2ccc(C#N)cn2)CC1	122 to 123 °C
CN(C)C1(Cc2ccccc2)CCC(c2[nH]c3ccccc3c2CC2CCCCC2)CC1 (stereo not given)	120 to 126 °C
COc1ccc(C(=O)N(C)C2N(C)C(c3ccc(F)cc3)=NC2(C(F)(F)F)C(F)(F)F)cc1 (stereo not given)	136 to 137 °C
CC(C)(C)OC(=O)NCc1ccc(OCCC2Oc3ccccc3N(Cc3ccc(Cl)cc3)C2=O)cc1 (stereo not given)	121 to 122 °C
CCOC(=O)C1C(=O)CC(C)(O)C(C(=O)OCC)C1c1cc(OC)c2oc(C)c(C)c2c1 (stereo not given)	157 to 158 °C
CC12CCC(C(=O)O)=CC1=CCC1C2CCC2(C)C(C(=O)C3CCCCC3)CCC12 (stereo not given)	217 to 220 °C
COc1ccc(-c2nn(Cc3ccc(Cl)cc3Cl)c(=O)cc2-c2ccncc2)cc1	151 to 153 °C
O=C(O)c1cc(=O)[nH]c2ccc(I)cc12	361 to 363 °C
COc1cc(OC)cc(-c2oc3ncnc(N4CCCCC4)c3c2-c2ccccc2)c1	152 to 153 °C
COc1ccc(C(=O)C2=C(c3ccccc3)c3ccccc3C2)cc1	114 to 115 °C
CCOC(=O)c1cc2c(Cl)cc(Cl)cc2[nH]1	180 °C
Cc1ccc(C2CCN(c3c(C)c(C)c4c(c3C)[C@@H](c3ccc(C)cc3)C(C)(C)O4)CC2)cc1	165 to 167 °C
CN(CCc1ccccn1)C(=O)CCSc1cc(C(C)(C)C)c(O)c(C(C)(C)C)c1	82 to 84 °C
Cc1cccc2c1CCc1ccccc1C2(O)CCCN=Cc1ccccc1 (stereo not given)	130 to 131 °C

The remaining lines, values ahead:

melting point	Structure (SMILES)
68 to 72 °C	COC(=O)C1=C(C)NC(C)=C(C(=O)OCCN2CCN(C(c3ccc(F)cc3)c3ccc(F)cc3)CC2)C1c1cccc([N+](=O)[O-])c1 (stereo not given)
203 °C	N#Cc1ccc(N(Cc2ccc(Br)cc2)n2cnnc2)cc1
256 to 257 °C	Cc1cc(Nc2c3ccccc3nc3ccccc23)ccc1N
101 to 103 °C	CC1(C)CCC(C#N)(Cc2ccc(Cl)cc2)C1=O (stereo not given)
209 to 210 °C	FC(F)(F)c1cccc(N2CCC(N=Cc3cnc4ccccc4c3)=N2)c1
204 to 207 °C	COc1ccc(-c2sc3cc(OC)ccc3c2C(=O)c2ccc(/C=C/C(=O)O)cc2)cc1
228 to 230 °C	O=C(O)Cc1cccc2c(-c3ccc(C(F)(F)F)cc3)nccc12
224 to 225 °C	COC(=O)C1=C(C)NC2=C(C(=O)OC2)C1c1ccccc1C (stereo not given)
222 to 223 °C	CC(CO)n1nc(-c2cnc(N)nc2-c2ccccc2)ccc1=O (stereo not given)
67 to 69 °C	CCOC(=O)C(C(=O)OCC)n1cccc1C(=O)C(Cl)(Cl)Cl
106 to 109 °C	O=C(NC1CCc2n[nH]cc2C1)[C@@H]1CCCN1C(=O)[C@@H](CC1CCCCC1)NS(=O)(=O)Cc1ccccc1 (stereo not given in full)
245 to 246 °C	COc1cccc(N(C)c2nc(N)nc3[nH]c4ccccc4c23)c1
96 °C	O=C(c1ccc(OCC2CO2)cc1)c1cccc2[nH]ccc12 (stereo not given)
73 to 74 °C	CCOC(=O)C(C)(C)Oc1ccc(CNc2ccc(Cl)cc2)cc1OC
166 to 168 °C	O=C(O)Cc1c(C(=O)c2ccc(OC(F)(F)F)cc2)[nH]c2cc(Cl)ccc12
130 to 140 °C	C[C@H](NC(=O)Cc1cccc(F)c1)C(=O)N[C@@H]1C(=O)Nc2ccccc2O[C@@H]1c1ccccc1
120 to 121 °C	CCCCc1ccc(S(=O)(=O)Nc2nncs2)cc1
135 to 136 °C	C=CCN(Cc1cc(Br)ccc1OCc1ccccc1)c1ccc(C(=O)O)nn1
40 to 41.5 °C	CCOC(CBr)(OCC)C(=O)CBr
83 to 90 °C	Nc1ccncc1Nc1ccc2[nH]ccc2c1
183 to 190 °C	NS(=O)(=O)c1ccc(C(=O)c2ccc(O)cc2)s1

melting point	Structure (SMILES)
155 to 157 °C	CC(C)(C)OC(=O)NC[C@H]1CN(c2ccc3c(c2)CCCCC3=O)C(=O)O1
70 to 71 °C	COC(=O)c1ccn2c1C(C(=O)OC)CC2 (stereo not given)
205 to 206 °C	CN(C)C(=O)C(=O)c1c(Cl)n(C)c2ccc(Cl)cc12
131 to 133 °C	COC(=O)CSc1cccc(NC(=O)NCC(=O)N(CC(=O)OC(C)(C)C)c2ccccc2C(=O)c2ccccc2)c1
89 to 91 °C	CC(=O)n1nc(C)c2ccc(F)cc21
63 to 75 °C	BrCc1ccccc1CCc1ccc(Br)cc1
136 to 142 °C	COc1ccc(S(=O)(=O)N(Cc2ccccc2)C2(C(=O)NO)CCN(Cc3ccccc3)CC2)cc1
133 °C	CN(C)c1ccccc1SCC(N)=NO
40 to 41 °C	CCC(=O)c1ccc(SCCCBr)cc1
107 °C	CC(C)(C)OC(=O)C1(ON=C(C(=O)O)c2ccco2)CCCC1
154 to 156 °C	O=c1c(Cl)c(S(=O)(=O)Cc2ccccc2)cnn1-c1ccccc1
118 °C	Clc1ccc(C2(CBr)OCC(COc3ccc4ccccc4c3)O2)c(Cl)c1 (stereo not given)
101 to 102 °C	O=C(O)Cn1cccc1Sc1ccccc1
> 250 °C	CCOC(=O)C1=C(C)NC(c2cnc(NC(C)=O)s2)=NC1c1ccc(F)cc1Cl (stereo not given)
168 to 169 °C	COc1ccc(NC(=O)c2ccc([N+](=O)[O-])c(C)c2)cc1
172 to 176 °C	Cc1cccc([N+](=O)[O-])c1CC(CC(=O)O)C(=O)O (stereo not given)
95.5 to 100 °C	CCCCCCCCCCCCCCCCS(=O)(=O)Nc1cccc(C(C)=O)c1
55 to 58 °C	C=CCc1cc2c(cc1O)C(C)(C)C(CCO)O2 (stereo not given)
200 to 201 °C	Cc1cc(Nc2nccc(-c3sc(-c4cccnc4)nc3C)n2)ccc1N1CCCCC1
65 to 66 °C	CCCCNc1ccc(CCNc2ncnc(CC)c2C(=O)OCC)cc1

Reference: a melting point compilation (Tetko et al.; mined from patent text by program, amines drawn as free bases though some values may be those of a salt)
